Laboratory results: US20210253557A1, “SUBSTITUTED TRIAZOLE DERIVATIVES AND USES THEREOF” (Bayer Pharma Aktiengesellschaft, priority 2017, published 2021)

Columns and labels:
[1] = target: T1, human V2 receptor (Homo sapiens, UniProt P30518); test: Cellular in vitro assay for determining vasopressin receptor activity (V2, CRE-luciferase); assay type: cell-based; conditions: CHO cell line transfected with the human V2 receptor; [Arg8]-vasopressin at EC50 concentration; read-out: IC50 hV2
T1 construct: expressed in transfected cells; host or cells: CHO K1 (ATCC) expressing firefly luciferase under a CRE-responsive promoter
Procedure, shortened: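 Antagonism was measured as inhibition of a 3-h, EC50-level [Arg8]-vasopressin stimulation, with compounds tested at several concentrations, yielding IC50 values. The read-out was cAMP-driven CRE-luciferase luminescence after lysis, in recombinant CHO K1 cells carrying human V2 receptor. Cells were seeded in 2% FCS DMEM/F12 one day earlier.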

[2] = target: T2, human V1a receptor (Homo sapiens, UniProt P37288); test: Cellular in vitro assay for determining vasopressin receptor activity (V1a, aequorin luminescence); assay type: cell-based; conditions: for IC50: CHO cell line transfected with the human V1a receptor, [Arg8]-vasopressin at EC50 concentration, read-out: IC50 hV1a; for ratio IC50 hV2/hV1a: selectivity ratio of IC50 hV2 to IC50 hV1a
T2 construct: expressed in transfected cells; host or cells: CHO K1 (ATCC), also stably transfected with a modified aequorin
T2 sequence (P37288 whole entry): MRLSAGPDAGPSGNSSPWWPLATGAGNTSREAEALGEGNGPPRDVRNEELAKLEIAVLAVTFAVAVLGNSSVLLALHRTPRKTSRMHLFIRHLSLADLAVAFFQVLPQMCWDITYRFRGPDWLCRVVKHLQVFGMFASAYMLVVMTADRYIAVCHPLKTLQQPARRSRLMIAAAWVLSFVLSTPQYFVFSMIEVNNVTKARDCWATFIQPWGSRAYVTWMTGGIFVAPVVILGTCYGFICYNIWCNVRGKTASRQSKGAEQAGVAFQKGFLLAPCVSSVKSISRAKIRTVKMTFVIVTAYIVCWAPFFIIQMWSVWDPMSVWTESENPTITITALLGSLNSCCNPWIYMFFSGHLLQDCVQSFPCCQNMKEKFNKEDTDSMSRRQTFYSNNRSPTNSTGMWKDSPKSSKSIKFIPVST

T1 sequence (P30518 whole entry): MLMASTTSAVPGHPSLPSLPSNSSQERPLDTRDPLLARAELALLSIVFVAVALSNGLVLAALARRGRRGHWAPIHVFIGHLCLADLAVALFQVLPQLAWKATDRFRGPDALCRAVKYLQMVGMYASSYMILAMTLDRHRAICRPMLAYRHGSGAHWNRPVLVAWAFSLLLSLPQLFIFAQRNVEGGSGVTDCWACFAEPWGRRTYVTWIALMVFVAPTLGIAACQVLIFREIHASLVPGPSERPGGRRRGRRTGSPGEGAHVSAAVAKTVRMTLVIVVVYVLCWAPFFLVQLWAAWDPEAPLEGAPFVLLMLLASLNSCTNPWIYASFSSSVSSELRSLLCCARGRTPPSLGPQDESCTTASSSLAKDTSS

CC(C)(C)OCC(NS(C)(=O)=O)c1nc(Cn2nc(-c3ccc(Cl)cc3)n(C[C@H](O)C(F)(F)F)c2=O)nn1-c1ccccc1Cl (single isomer, unassigned) [Example 83]
IC50 [1]: 80.5 nM
IC50 [2]: 1.95 nM
ratio IC50 hV2/hV1a [2]: 41.3

CC(C)(C)OCC(NS(C)(=O)=O)c1nc(Cn2nc(-c3ccc(Cl)cc3)n(C[C@H](O)C(F)(F)F)c2=O)nn1-c1ccccc1Cl (single isomer, unassigned) [Example 84]
IC50 [1]: 44.5 nM
IC50 [2]: 4.75 nM
ratio IC50 hV2/hV1a [2]: 9.4

CS(=O)(=O)NC(CO)c1nc(Cn2nc(-c3ccc(Cl)cc3)n(C[C@H](O)C(F)(F)F)c2=O)nn1-c1ccccc1Cl (single isomer, unassigned) [Example 86]
IC50 [1]: 2 nM
IC50 [2]: 0.97 nM
ratio IC50 hV2/hV1a [2]: 2.1

CS(=O)(=O)NC(CO)c1nc(Cn2nc(-c3ccc(Cl)cc3)n(C[C@H](O)C(F)(F)F)c2=O)nn1-c1ccccc1Cl (single isomer, unassigned) [Example 87]
IC50 [1]: 35.5 nM
IC50 [2]: 2.25 nM
ratio IC50 hV2/hV1a [2]: 15.8

CC(=O)NC(COC(C)(C)C)c1nc(Cn2nc(-c3ccc(Cl)cc3)n(C[C@H](O)C(F)(F)F)c2=O)nn1-c1ccccc1Cl (single isomer, unassigned) [Example 89]
IC50 [1]: 129 nM
IC50 [2]: 3.45 nM
ratio IC50 hV2/hV1a [2]: 37.4

CC(=O)NC(COC(C)(C)C)c1nc(Cn2nc(-c3ccc(Cl)cc3)n(C[C@H](O)C(F)(F)F)c2=O)nn1-c1ccccc1Cl (single isomer, unassigned) [Example 90]
IC50 [1]: 4900 nM
IC50 [2]: 12.5 nM
ratio IC50 hV2/hV1a [2]: 392.0

CC(=O)NC(CO)c1nc(Cn2nc(-c3ccc(Cl)cc3)n(C[C@H](O)C(F)(F)F)c2=O)nn1-c1ccccc1Cl (single isomer, unassigned) [Example 92]
IC50 [1]: 17.5 nM
IC50 [2]: 5.1 nM
ratio IC50 hV2/hV1a [2]: 3.4

CC(=O)NC(CO)c1nc(Cn2nc(-c3ccc(Cl)cc3)n(C[C@H](O)C(F)(F)F)c2=O)nn1-c1ccccc1Cl (single isomer, unassigned) [Example 93]
IC50 [1]: 15.5 nM
IC50 [2]: 0.78 nM
ratio IC50 hV2/hV1a [2]: 20.0

O=C(NC(CO)c1nc(Cn2nc(-c3ccc(Cl)cc3)n(C[C@H](O)C(F)(F)F)c2=O)nn1-c1ccccc1Cl)C(F)(F)F (single isomer, unassigned) [Example 96]
IC50 [1]: 3.25 nM
IC50 [2]: 0.55 nM
ratio IC50 hV2/hV1a [2]: 6.0

O=C(NC(CO)c1nc(Cn2nc(-c3ccc(Cl)cc3)n(C[C@H](O)C(F)(F)F)c2=O)nn1-c1ccccc1Cl)C(F)(F)F (single isomer, unassigned) [Example 97]
IC50 [1]: 20 nM
IC50 [2]: 4.45 nM
ratio IC50 hV2/hV1a [2]: 4.5

O=C1NC(c2nc(Cn3nc(-c4ccc(Cl)cc4)n(C[C@H](O)C(F)(F)F)c3=O)nn2-c2ccccc2Cl)CO1 (single isomer, unassigned) [Example 99]
IC50 [1]: 21 nM
IC50 [2]: 3.3 nM
ratio IC50 hV2/hV1a [2]: 6.4

O=C1NC(c2nc(Cn3nc(-c4ccc(Cl)cc4)n(C[C@H](O)C(F)(F)F)c3=O)nn2-c2ccccc2Cl)CO1 (single isomer, unassigned) [Example 100]
IC50 [1]: 87.5 nM
IC50 [2]: 4.33 nM
ratio IC50 hV2/hV1a [2]: 20.2

CN1C(=O)CC[C@@H]1c1nc(Cn2nc(-c3ccc(Cl)cc3)n(C[C@H](O)C(F)(F)F)c2=O)nn1-c1ncccc1Cl (single isomer, unassigned) [Example 104]
IC50 [1]: 175 nM
IC50 [2]: 3.1 nM
ratio IC50 hV2/hV1a [2]: 56.4

CN1C(=O)CC[C@@H]1c1nc(Cn2nc(-c3ccc(Cl)cc3)n(C[C@H](O)C(F)(F)F)c2=O)nn1-c1ncccc1Cl (single isomer, unassigned) [Example 105]
IC50 [1]: 51 nM
IC50 [2]: 2.1 nM
ratio IC50 hV2/hV1a [2]: 24.3

CC(=O)NC(C)c1nc(Cn2nc(-c3ccc(Cl)cc3)n(C[C@H](O)C(F)(F)F)c2=O)nn1-c1ncccc1Cl (single isomer, unassigned) [Example 108]
IC50 [1]: 69.4 nM
IC50 [2]: 6.03 nM
ratio IC50 hV2/hV1a [2]: 11.5

CC(=O)NC(C)c1nc(Cn2nc(-c3ccc(Cl)cc3)n(C[C@H](O)C(F)(F)F)c2=O)nn1-c1ncccc1Cl (single isomer, unassigned) [Example 109]
IC50 [1]: 408 nM
IC50 [2]: 39 nM
ratio IC50 hV2/hV1a [2]: 10.5

O=C1NC(c2nc(Cn3nc(-c4ccc(Cl)cc4)n(C[C@H](O)C(F)(F)F)c3=O)nn2-c2ncccc2Cl)CO1 (single isomer, unassigned) [Example 113]
IC50 [1]: 134 nM
IC50 [2]: 5.8 nM
ratio IC50 hV2/hV1a [2]: 23.1

O=C1NC(c2nc(Cn3nc(-c4ccc(Cl)cc4)n(C[C@H](O)C(F)(F)F)c3=O)nn2-c2ncccc2Cl)CO1 (single isomer, unassigned) [Example 114]
IC50 [1]: 525 nM
IC50 [2]: 22.7 nM
ratio IC50 hV2/hV1a [2]: 23.2

O=C1NC(c2nc(Cn3nc(-c4ccc(Cl)cc4)n(C[C@H](O)C(F)(F)F)c3=O)nn2-c2ncccc2OC(F)(F)F)CO1 (single isomer, unassigned) [Example 118]
IC50 [1]: 385 nM
IC50 [2]: 17 nM
ratio IC50 hV2/hV1a [2]: 22.7

O=C1NC(c2nc(Cn3nc(-c4ccc(Cl)cc4)n(C[C@H](O)C(F)(F)F)c3=O)nn2-c2ncccc2OC(F)(F)F)CO1 (single isomer, unassigned) [Example 119]
IC50 [1]: 875 nM
IC50 [2]: 57 nM
ratio IC50 hV2/hV1a [2]: 15.4

CC(=O)NC(CO)c1nc(Cn2nc(-c3ccc(Cl)cc3)n(C[C@H](O)C(F)(F)F)c2=O)nn1-c1ncccc1OC(F)(F)F (single isomer, unassigned) [Example 121]
IC50 [1]: 2780 nM
IC50 [2]: 147 nM
ratio IC50 hV2/hV1a [2]: 18.8

CC(=O)NC(CO)c1nc(Cn2nc(-c3ccc(Cl)cc3)n(C[C@H](O)C(F)(F)F)c2=O)nn1-c1ncccc1OC(F)(F)F (single isomer, unassigned) [Example 122]
IC50 [1]: 280 nM
IC50 [2]: 6.35 nM
ratio IC50 hV2/hV1a [2]: 44.1

CNc1ccncc1-n1nc(Cn2nc(-c3ccc(Cl)cc3)n(C[C@H](O)C(F)(F)F)c2=O)nc1C(C)NC(C)=O (single isomer, unassigned) [Example 126]
IC50 [1]: 1260 nM
IC50 [2]: 1380 nM
ratio IC50 hV2/hV1a [2]: 0.9

CNc1ccncc1-n1nc(Cn2nc(-c3ccc(Cl)cc3)n(C[C@H](O)C(F)(F)F)c2=O)nc1C(C)NC(C)=O (single isomer, unassigned) [Example 127]
IC50 [1]: 1550 nM
IC50 [2]: 53 nM
ratio IC50 hV2/hV1a [2]: 29.3

CN1C(=O)CCC1c1nc(Cn2nc(-c3ccc(Cl)cc3)n(C[C@H](O)C(F)(F)F)c2=O)nn1CCC(F)(F)F (single isomer, unassigned) [Example 131]
IC50 [1]: 1540 nM
IC50 [2]: 9.55 nM
ratio IC50 hV2/hV1a [2]: 161.3

CN1C(=O)CCC1c1nc(Cn2nc(-c3ccc(Cl)cc3)n(C[C@H](O)C(F)(F)F)c2=O)nn1CCC(F)(F)F (single isomer, unassigned) [Example 132]
IC50 [1]: 1730 nM
IC50 [2]: 18.5 nM
ratio IC50 hV2/hV1a [2]: 93.5

C[C@H](OC(N)=O)c1nc(Cn2nc(-c3ccc(Cl)cc3)n(C[C@H](O)C(F)(F)F)c2=O)nn1-c1c(Cl)cccc1Cl [Example 1, (1S)-1-[3-({3-(4-Chlorophenyl)-5-oxo-4-[(2S)-3,3,3-trifluoro-2-hydroxypropyl]-4,5-dihydro-1H-1,2,4-triazol-1-yl}methyl)-1-(2,6-dichlorophenyl)-1H-1,2,4-triazol-5-yl]ethyl Carbamate]
IC50 [1]: 16.3 nM
IC50 [2]: 3.5 nM
ratio IC50 hV2/hV1a [2]: 4.7

C[C@@H](OC(N)=O)c1nc(Cn2nc(-c3ccc(Cl)cc3)n(C[C@H](O)C(F)(F)F)c2=O)nn1-c1c(Cl)cccc1Cl [Example 2, (1R)-1-[3-({3-(4-Chlorophenyl)-5-oxo-4-[(2S)-3,3,3-trifluoro-2-hydroxypropyl]-4,5-dihydro-1H-1,2,4-triazol-1-yl}methyl)-1-(2,6-dichlorophenyl)-1H-1,2,4-triazol-5-yl]ethyl Carbamate]
IC50 [1]: 5.8 nM
IC50 [2]: 0.97 nM
ratio IC50 hV2/hV1a [2]: 6.0

C[C@@H](OC(N)=O)c1nc(Cn2nc(-c3ccc(Cl)cc3)n(C[C@H](O)C(F)(F)F)c2=O)nn1-c1c(F)cccc1Cl [Example 3, (1R)-1-[1-(2-Chloro-6-fluorophenyl)-3-({3-(4-chlorophenyl)-5-oxo-4-[(2S)-3,3,3-trifluoro-2-hydroxypropyl]-4,5-dihydro-1H-1,2,4-triazol-1-yl}methyl)-1H-1,2,4-triazol-5-yl]ethyl Carbamate]
IC50 [1]: 6.85 nM
IC50 [2]: 1.35 nM
ratio IC50 hV2/hV1a [2]: 5.1

C[C@@H](OC(N)=O)c1nc(Cn2nc(-c3ccc(Cl)cc3)n(C[C@H](O)C(F)(F)F)c2=O)nn1-c1ccc(F)cc1Cl [Example 4, (1R)-1-[1-(2-Chloro-4-fluorophenyl)-3-({3-(4-chlorophenyl)-5-oxo-4-[(2S)-3,3,3-trifluoro-2-hydroxypropyl]-4,5-dihydro-1H-1,2,4-triazol-1-yl}methyl)-1H-1,2,4-triazol-5-yl]ethyl Carbamate]
IC50 [1]: 13.4 nM
IC50 [2]: 1.46 nM
ratio IC50 hV2/hV1a [2]: 9.2

C[C@H](OC(N)=O)c1nc(Cn2nc(-c3ccc(Cl)cc3)n(C[C@H](O)C(F)(F)F)c2=O)nn1-c1ccccc1OC(F)F [Example 5, (1S)-1-{3-({3-(4-Chlorophenyl)-5-oxo-4-[(2S)-3,3,3-trifluoro-2-hydroxypropyl]-4,5-dihydro-1H-1,2,4-triazol-1-yl}methyl)-1-[2-(difluoromethoxy)phenyl]-1H-1,2,4-triazol-5-yl}ethyl Carbamate]
IC50 [1]: 7.05 nM
IC50 [2]: 1.6 nM
ratio IC50 hV2/hV1a [2]: 4.4
